A short description of one data set: in vivo. Particulars: rhesus monkey, topical or ocular. As to the method:
Male rhesus monkeys weighting 10-14 Kg can be used as the subject. An appropriate area of the monkey's chest is shaved 24 hours before drug application.
Drug formulations comprising the PAEC are applied to a certain area of the chest. The monkey is restrained in a chair to prevent it from touching its chest.
Blood samples are taken at appropriate intervals after the application. The heparinized blood is centrifuged, and the plasma removed and stored at -20° C. until analyzed.
This example show in vivo plasma metoclopramide.HCl levels with a topical gel formulation.
200 mg of metoclopramide.HCl was dissolved in 4 ml of 10% C12 OH in a 1:1 volume mixture of MP/1,2-propanediol. To this solution was added 160 mg of Klucel (hydroxypropylcellulose type HF; Hercules Inc.) and the same stirred thoroughly to obtain a uniform gel. 1.0 ml of the gel was applied to 49 cm^2 of the chest area of the rhesus monkey; the applied area was left open to the air during the experiment.
In Examples 7 and 10, the in vivo Rhesus monkey test earlier described was followed except for modifying as described in Example 7.
49 cm^2 of a polyester non-woven cloth (230 mg) impregnated with 1 ml of 25% C12 OH in a 2:1 volume mixture of MP/1,2-propanediol containing 200 mg of Indomethacin was applied to the upper back of a rhesus monkey; the applied area was occluded with Saran® film.
The plasma level of Indomethacine was analyzed by conventional HPLC.
The in vivo procedure of Example 7 was duplicated except for using propranolol as the active agent in place of the NSAID used, e.g., Indomethacin.

A short description of data set [1]: In vitro skin penetration study with rat skin diffusion cell technique (active agent flux, 8 hours). The settings on record: 25 mg in 1 ml. The text has this:
Rat full thickness skins were used in the diffusion cell method of Michaels, AlChE Journal, 21 [5], 985-996, 1975. The rat skin was mounted in the diffusion cell in a vertical position between the upstream and the downstream compartments; the exposed area of the skin approximated 4.15 cm^2.
The skin was excised from the shaved abdominal site of male albino rats weighing 150~300 g, and washed with normal saline solution after the subcutaneous fat was carefully removed with scissors.
The active agent/PAEC solution of known concentration was added to the upper compartment of the cell, which was exposed to the epithelial side of the skin and a normal saline solution was placed in the lower compartment.
The penetration rate was studied in a thermostated bath at 30° C. […]
The flux of the active agent is given in the terms of μg/cm^2 /8 hours. 25 Volume percent component A with respect to component A and component B volume with or without diols and/or triols was used in the composition along with 2.5 weight percent of the active agent. For purposes of comparison, in one instance the result for an adjuvant alone with a diol and/or triol is given.
1,2-propanediol was used as a diol moderator. […]
In the following Examples 6, 8, 9, 11 and 12, in vitro transdermal penetration was again analyzed followed the method of Michaels, AIChE Journal, 21, [5], pp. 985-996 (1975), according to the earlier described procedure. The sample volume was 1 ml unless otherwise indicated and flux of the active agent is given in μg/cm^2 /8 hours. Al percents are volume percents based on the total volume of the system unless otherwise indicated.
25 mg of the NSAID, Indomethacin, Diclofenac sodium or Ibuprofen in 1 ml of various systems were used. […]

We go through four molecules from patent publication US5128376A, “Method for percutaneously administering physiologically active agents using an adjuvant a solvent and a diol moderator” (priority 1990, dated 1992).

Where a name gives a salt, the structure may show the parent alone. Read-outs that look alike come from different tables or passages of the source.

For `CC(C)NCC(O)COc1cccc2ccccc12` (centres unmarked) [propranolol], in “in vivo” (plasma, 200 mg, 1 hour after application, procedure of Example 7 (25% C12 OH in 2:1 MP/1,2-propanediol, 49 cm^2, upper back, occluded), read-out: Propranolol plasma level), the concentration at 1 h came out at 30 ng/mL. Moreover, the concentration at 3 h in the data set “in vivo” (plasma, 200 mg, 3 hours after application, procedure of Example 7 (25% C12 OH in 2:1 MP/1,2-propanediol, 49 cm^2, upper back, occluded), read-out: Propranolol plasma level) came out at 115 ng/mL. The concentration at 5 h in “in vivo” (plasma, 200 mg, 5 hours after application, procedure of Example 7 (25% C12 OH in 2:1 MP/1,2-propanediol, 49 cm^2, upper back, occluded), read-out: Propranolol plasma level) is 130 ng/mL. The concentration at 7 h in “in vivo” (plasma, 200 mg, 7 hours after application, procedure of Example 7 (25% C12 OH in 2:1 MP/1,2-propanediol, 49 cm^2, upper back, occluded), read-out: Propranolol plasma level) was determined as 90 ng/mL.
Turning to `CC(C)Cc1ccc(C(C)C(=O)O)cc1` (centres unmarked) [Ibuprofen], the “Relative Flux” value in data set [1] (Ibuprofen, 25% C12 OH in N-methyl piperidone (reference)) came to 1.0; in data set [1] (Ibuprofen, 25% C12 OH in a 2:1 volume mixture of N-methyl piperidone/1,2-propanediol, relative to 25% C12 OH in N-methyl piperidone), 0.48.
In the data set “in vivo” (in vivo), `CCN(CC)CCNC(=O)c1cc(Cl)c(N)cc1OC` [metoclopramide.HCl] registered a concentration at 1 h of 75 ng/mL, a concentration at 2 h of 146 ng/mL, a concentration at 3 h of 178 ng/mL and a concentration at 5 h of 121 ng/mL. This molecule showed a concentration at 7 h in the data set “in vivo” (in vivo) of 93 ng/mL.
Regarding `COc1ccc2c(c1)c(CC(=O)O)c(C)n2C(=O)c1ccc(Cl)cc1` [Indomethacin], the “Relative Flux” value in data set [1] (Indomethacin, 25% C12 OH in MP (reference)) was determined as 1.0; in data set [1] (Indomethacin, 25% C12 OH in a 2:1 volume mixture of MP/1,2-propanediol, relative to 25% C12 OH in MP), 0.73. In addition, the concentration at 1 h in “in vivo” (in vivo, 1 hour after application, 200 mg in 1 ml 25% C12 OH in 2:1 MP/1,2-propanediol, 49 cm^2 cloth, upper back, occluded, read-out: Indomethacin plasma level) was 619 ng/mL. The concentration at 3 h in the data set “in vivo” (in vivo, 3 hours after application, 200 mg in 1 ml 25% C12 OH in 2:1 MP/1,2-propanediol, 49 cm^2 cloth, upper back, occluded, read-out: Indomethacin plasma level) is 452 ng/mL. In “in vivo” (in vivo, 5 hours after application, 200 mg in 1 ml 25% C12 OH in 2:1 MP/1,2-propanediol, 49 cm^2 cloth, upper back, occluded, read-out: Indomethacin plasma level), the concentration at 5 h was 388 ng/mL. Further, in “in vivo” (in vivo, 7 hours after application, 200 mg in 1 ml 25% C12 OH in 2:1 MP/1,2-propanediol, 49 cm^2 cloth, upper back, occluded, read-out: Indomethacin plasma level), the concentration at 7 h turned out to be 429 ng/mL.
